Assay results: patent US12728107B2, “Sirtuin activator, and method for activating sirtuin” (Yuki Gosei Kogyo Co., Ltd., priority 2020, dated 2026)
Like-named read-outs stand apart in the source and are kept apart here.

Key:
[1] = test system: senescence-associated β-galactosidase (SA-β-Gal) in skin dermal fibroblasts; experiment: Senescence marker SA-β-Gal activity (C12FDG fluorescence) in etoposide-treated skin dermal fibroblasts; details: FIG. 4
Sirt3 gene [2] = details: differentiated C2C12 cells; β-alanine 500 μM and 1 mM; added twice, 24 h apart; vs 1×PBS control; FIG. 1
Sirt1 gene [3] = details: differentiated C2C12 cells; β-alanine 500 μM and 1 mM; added twice, 24 h apart; vs 1×PBS control; FIG. 1
Sirt6 gene = details: skin dermal cells; culture supernatant of C2C12 cells treated with β-alanine; FIG. 3
Procedure: (§1) In this example, the activation of the sirtuin gene in skin dermal cells via a substance secreted from muscle cells (C2C12 cells) by β-alanine was examined.
(§2) C2C12 cells were seeded in 5-mL Dish at 2.0×10^5 cells/well, and 48 hours later, the medium was replaced with DMEM medium containing 2% HS to induce differentiation. The culture medium was changed every 2 days to a new medium, and differentiation was induced. Then, the medium was changed every 2 days and β-alanine was added, and the culture supernatant was collected after 8 days of culture. 1×PBS was added to the control cells. After 24 hours of the addition, sample was secondary added, and the culture supernatant was collected after 24 hours of the second addition of sample.
(§3) Specifically, cells were seeded at a concentration of 3.0×10^4 cells/mL in a 5 mL dish.
(§4) RNA extraction from cells, cDNA synthesis, and RT-PCR were performed by the same procedure as in Example 2. The sequences of the used primers of the human sirt6 gene are as follows.

Sirt3 gene [4] = details: skin dermal cells; culture supernatant of C2C12 cells treated with β-alanine; FIG. 3
Procedure: as §1, §2, §3, §4

Sirt1 gene [5] = details: skin dermal cells; culture supernatant of C2C12 cells treated with β-alanine; FIG. 3
Procedure: as §1, §2, §3, §4

Sirt3 gene [6] = details: HaCaT cells; β-alanine 500 μM and 10 mM; added twice, 24 h apart; vs 1×PBS control; FIG. 2
Procedure: (§5) In this example, a transcription of the Sirt1 gene and Sirt3 gene in HaCaT cells, a human epidermal keratinocyte cell line, was measured.
(§6) HaCaT cells were seeded in 6-well plates at 6.0×10^4 cells/well. After 24 hours, β-alanine was added to the cells, and 1×PBS was added to the control cells. After 24 hours of the addition, sample was secondary added, and the medium was aspirated after 24 hours of the second addition of sample. Then, 1×PBS was added at 1 mL/well to wash the cells. RNA extraction from cells, cDNA synthesis, and RT-PCR were performed by the same procedure as in Example 1. The sequences of the used primers of the human sirtuin genes are as follows.

Sirt1 gene [7] = details: HaCaT cells; β-alanine 500 μM and 10 mM; added twice, 24 h apart; vs 1×PBS control; FIG. 2
Procedure: as §5, §6

SMILES	fluorescence intensity of C12FDG (SA-β-Gal activity) ([1]; dermal fibroblasts, etoposide 50 μM for 30 minutes, vs DMSO control)	expression of Sirt3 (Sirt3 gene [2])	expression of Sirt1 (Sirt1 gene [3])	fluorescence intensity of C12FDG (SA-β-Gal activity) ([1]; etoposide-treated dermal fibroblasts, culture supernatant of β-alanine-treated C2C12 cells, 48 hours)	expression of Sirt6 (Sirt6 gene)	expression of Sirt3 (Sirt3 gene [4])	expression of Sirt1 (Sirt1 gene [5])	expression of Sirt3 (Sirt3 gene [6])	expression of Sirt1 (Sirt1 gene [7])
COc1cc([C@@H]2c3cc4c(cc3[C@@H](O[C@@H]3O[C@@H]5CO[C@@H](C)O[C@H]5[C@H](O)[C@H]3O)[C@H]3COC(=O)[C@H]23)OCO4)cc(OC)c1O [etoposide, reference compound]	significantly enhanced	–	–	–	–	–	–	–	–
NCCC(=O)O [β-alanine, 3-aminopropanoic acid]	–	enhanced	enhanced	decreased	enhanced	enhanced	enhanced	enhanced	enhanced
